From ChEMBL document CHEMBL5532637, “Antimicrobial activity of natural and semi-synthetic carbazole alkaloids” (Eur J Med Chem, 2023)
≈ marks a conversion by molar mass, not a printed value.

Columns and labels:
Staphylococcus aureus [1] = assay: Antimicrobial activity against methicillin-resistant Staphylococcus aureus assessed as inhibition of microbial growth incubated for 18 to 24 hrs by agar broth microplate assay; type: functional; settings: time 18-24 hrs, read-out: MIC100
Salmonella typhimurium [2] = assay: Antimicrobial activity against Salmonella typhimurium assessed as inhibition of microbial growth incubated for 18 to 24 hrs by agar broth microplate assay; type: functional, Salmonella enterica subsp. enterica serovar Typhimurium; settings: Salmonella enterica; time 18-24 hrs; read-out: MIC100
Candida albicans [3] = assay: Antimicrobial activity against Candida albicans assessed as inhibition of microbial growth incubated for 18 to 24 hrs by agar broth microplate assay; type: functional; settings: time 18-24 hrs, read-out: MIC100
Pseudomonas aeruginosa [4] = assay: Antibacterial activity against Pseudomonas aeruginosa MTCC 1688 assessed as inhibition of bacterial growth incubated for 24 hrs by two-fold serial dilution method; type: functional
Escherichia coli [5] = assay: Antibacterial activity against Escherichia coli MTCC 1687 assessed as inhibition of bacterial growth incubated for 24 hrs by two-fold serial dilution method; type: functional
Staphylococcus aureus [6] = assay: Antibacterial activity against Staphylococcus aureus MTCC 96 assessed as inhibition of bacterial growth incubated for 24 hrs by two-fold serial dilution method; type: functional
Bacillus subtilis [7] = assay: Antibacterial activity against Bacillus subtilis MTCC441 assessed as inhibition of bacterial growth incubated for 24 hrs by two-fold serial dilution method; type: functional
Cryptococcus neoformans [8] = assay: Antimicrobial activity against Cryptococcus neoformans ATCC6603 assessed as inhibition of microbial growth incubated for 18 hrs by resazurin dye based two-fold serial dilution assay; type: functional
Cryptococcus neoformans [9] = assay: Antimicrobial activity against Cryptococcus neoformans clinical isolate assessed as inhibition of microbial growth incubated for 18 hrs by resazurin dye based two-fold serial dilution assay; type: functional
Staphylococcus aureus [10] = assay: Antimicrobial activity against Staphylococcus aureus assessed as inhibition of microbial growth incubated for 18 hrs by resazurin dye based two-fold serial dilution assay; type: functional
Staphylococcus aureus [11] = assay: Antimicrobial activity against Staphylococcus aureus clinical isolate assessed as inhibition of microbial growth incubated for 18 hrs by resazurin dye based two-fold serial dilution assay; type: functional
Staphylococcus aureus [12] = assay: Antibacterial activity against Staphylococcus aureus PTCC 1133 assessed as inhibition of bacterial growth by serial dilution assay; type: functional
Escherichia coli [13] = assay: Antibacterial activity against Escherichia coli PTCC 1330 assessed as inhibition of bacterial growth by serial dilution assay; type: functional
Staphylococcus aureus [14] = assay: Antibacterial activity against Staphylococcus aureus assessed as inhibition of bacterial growth incubated for 24 hrs by macrodilution broth method; type: functional
Bacillus subtilis [15] = assay: Antibacterial activity against Bacillus subtilis assessed as inhibition of bacterial growth incubated for 24 hrs by macrodilution broth method; type: functional
Escherichia coli [16] = assay: Antibacterial activity against Escherichia coli assessed as inhibition of bacterial growth incubated for 24 hrs by macrodilution broth method; type: functional
Pseudomonas aeruginosa [17] = assay: Antibacterial activity against Pseudomonas aeruginosa assessed as inhibition of bacterial growth incubated for 24 hrs by macrodilution broth method; type: functional
Staphylococcus aureus [18] = assay: Antibacterial activity against Staphylococcus aureus ATCC 6538 assessed as inhibition of bacterial growth incubated for 24 hrs by disk diffusion method; type: functional
Bacillus subtilis [19] = assay: Antibacterial activity against Bacillus subtilis NRRL B-14819 assessed as inhibition of bacterial growth incubated for 24 hrs by disk diffusion method; type: functional
Micrococcus luteus = assay: Antibacterial activity against Micrococcus luteus ATCC 21881 assessed as inhibition of bacterial growth incubated for 24 hrs by disk diffusion method; type: functional
Escherichia coli [20] = assay: Antibacterial activity against Escherichia coli ATCC 25922 assessed as inhibition of bacterial growth incubated for 24 hrs by disk diffusion method; type: functional
Candida albicans [21] = assay: Antifungal activity against Candida albicans assessed as inhibition of fungal growth incubated for 1 hr by serial plate dilution method; type: functional
Bacillus cereus = assay: Antibacterial activity against Bacillus cereus MTCC 121 assessed as inhibition of bacterial growth by broth micro-dilution assay; type: functional
Staphylococcus aureus [22] = assay: Antibacterial activity against Staphylococcus aureus MTCC 96 assessed as inhibition of bacterial growth by broth micro-dilution assay; type: functional
Escherichia coli [23] = assay: Antibacterial activity against Escherichia coli MTCC 1652 assessed as inhibition of bacterial growth by broth micro-dilution assay; type: functional
Pseudomonas putida = assay: Antibacterial activity against Pseudomonas putida MTCC102 assessed as inhibition of bacterial growth by broth micro-dilution assay; type: functional
Xanthomonas oryzae = assay: Antimicrobial activity against Xanthomonas oryzae incubated for 24 to 48 hrs by turbidimeter test; type: functional, organism-based
Xanthomonas axonopodis = assay: Antimicrobial activity against Xanthomonas axonopodis incubated for 24 to 48 hrs by turbidimeter test; type: functional, organism-based
[24] = Antimicrobial activity against Pseudomonas syringae pv. actinidiae incubated for 24 to 48 hrs by turbidimeter test; type: functional
Escherichia coli [25] = assay: Antimicrobial activity against Escherichia coli NCIM 2065 assessed as zone of inhibition incubated for 24 hrs by agar diffusion method; type: functional
Proteus vulgaris = assay: Antimicrobial activity against Proteus vulgaris NCIM 2813 assessed as zone of inhibition incubated for 24 hrs by agar diffusion method; type: functional
Staphylococcus aureus [26] = assay: Antimicrobial activity against Staphylococcus aureus NCIM 2120 assessed as zone of inhibition incubated for 24 hrs by agar diffusion method; type: functional
Candida albicans [27] = assay: Antimicrobial activity against Candida albicans assessed as zone of inhibition incubated for 24 hrs by agar diffusion method; type: functional
Aspergillus niger = assay: Antimicrobial activity against Aspergillus niger RCMB02329 assessed as inhibition of microbial growth; type: functional
Geotrichum candidum = assay: Antimicrobial activity against Geotrichum candidum RCMB050102 assessed as inhibition of microbial growth; type: functional
Staphylococcus aureus [28] = assay: Antimicrobial activity against Staphylococcus aureus RCMB000106 assessed as inhibition of microbial growth; type: functional
Bacillus subtilis [29] = assay: Antimicrobial activity against Bacillus subtilis RCMB 000107 assessed as inhibition of microbial growth; type: functional
Escherichia coli [30] = assay: Antimicrobial activity against Escherichia coli RCMB000103 assessed as inhibition of microbial growth; type: functional
Klebsiella pneumoniae = assay: Antimicrobial activity against Klebsiella pneumoniae RCMB000111 assessed as inhibition of microbial growth; type: functional
Salmonella typhimurium [31] = assay: Antimicrobial activity against Salmonella typhimurium RCMB010072 assessed as inhibition of microbial growth; type: functional, Salmonella enterica subsp. enterica serovar Typhimurium; settings: Salmonella enterica
Caulobacter vibrioides = assay: Antibacterial activity against Caulobacter crescentus assessed as inhibition of bacterial growth incubated for 24 hrs; type: functional
Staphylococcus aureus [32] = assay: Antibacterial activity against Staphylococcus aureus assessed as inhibition of bacterial growth incubated for 24 hrs; type: functional

Question: For O=c1[nH]n(-c2ccccc2)c(=O)c2cc3c(cc12)[nH]c1ccc([N+](=O)[O-])cc13, which MIC (Staphylococcus aureus [1]) is on record?
Answer: 12 µg/mL

Question: And the MIC (Salmonella typhimurium [2])?
Answer: > 512 µg/mL

Question: And the MIC (Candida albicans [3])?
Answer: 32 µg/mL

Question: With CCOC(=O)C1COC2=C(C(=O)N3c4ccccc4C4C=CC=C2C43)C1c1ccc(OC)cc1 (configuration not stated) as the compound, how does the MIC (Pseudomonas aeruginosa [4]) read?
Answer: 12.5 µg/mL (≈ 27.4 µM)

Question: What about the MIC (Escherichia coli [5]) of the same compound?
Answer: 6.25 µg/mL (≈ 13.7 µM)

Question: What about the MIC (Staphylococcus aureus [6]) of the same compound?
Answer: 12.5 µg/mL (≈ 27.4 µM)

Question: What about the MIC (Bacillus subtilis [7]) of the same compound?
Answer: 12.5 µg/mL (≈ 27.4 µM)

Question: Which results are given for COc1cccc2c1[nH]c1ccc(C(=O)N3CCCCC3C)cc12 (configuration not stated)?
Answer: MIC (Cryptococcus neoformans [8]): 6.25 µg/mL; MIC (Cryptococcus neoformans [9]): 12.5 µg/mL; MIC (Staphylococcus aureus [10]): 6.25 µg/mL; MIC (Staphylococcus aureus [11]): 6.25 µg/mL

Question: With CCC(O)Cn1cc(Cn2c3ccccc3c3ccccc32)nn1 (configuration not stated) as the compound, how does the MIC50 (Staphylococcus aureus [12]) read?
Answer: 1.56 µg/mL (≈ 4.88 µM)

Question: And the MIC50 (Escherichia coli [13])?
Answer: 3.12 µg/mL (≈ 9.75 µM)

Question: For COC(=O)C(C)c1ccc2c3cc(Cl)ccc3n(CC(=O)Nc3c(C)cccc3C)c2c1 (configuration not stated), which MIC (Staphylococcus aureus [14]) is on record?
Answer: 0.25 µg/mL (≈ 0.557 µM)

Question: What about the MIC (Bacillus subtilis [15]) of the same compound?
Answer: 0.25 µg/mL (≈ 0.557 µM)

Question: And the MIC (Escherichia coli [16])?
Answer: 0.25 µg/mL (≈ 0.557 µM)

Question: What about the MIC (Pseudomonas aeruginosa [17]) of the same compound?
Answer: 0.25 µg/mL (≈ 0.557 µM)

Question: Which results are given for CC1=NN(c2ccccc2)C(=O)/C1=N\NNC(=O)Cn1c2ccccc2c2ccccc21?
Answer: MIC (Staphylococcus aureus [18]): 1.1 µg/mL (≈ 2.59 µM); MIC (Bacillus subtilis [19]): 1.2 µg/mL (≈ 2.83 µM); MIC (Micrococcus luteus): 3.1 µg/mL (≈ 7.3 µM); MIC (Escherichia coli [20]): 6.4 µg/mL (≈ 15.1 µM); MIC (Candida albicans [21]): 9.6 µg/mL (≈ 22.6 µM)

Question: With O=C(Nc1ccc(F)cc1)C(=O)c1ccc2c(c1)c1ccccc1n2Cc1ccc(Cl)cc1 as the compound, how does the MIC (Bacillus cereus) read?
Answer: 8 µg/mL (≈ 17.5 µM)

Question: What about the MIC (Staphylococcus aureus [22]) of the same compound?
Answer: 8 µg/mL (≈ 17.5 µM)

Question: What about the MIC (Escherichia coli [23]) of the same compound?
Answer: 8 µg/mL (≈ 17.5 µM)

Question: And the MIC (Pseudomonas putida)?
Answer: 8 µg/mL (≈ 17.5 µM)

Question: Which results are given for OC(CNCc1ccc(Cl)cc1)Cn1c2ccccc2c2ccccc21 (configuration not stated)?
Answer: EC50 (Xanthomonas oryzae): 1.27 µg/mL (≈ 3.48 µM); EC50 (Xanthomonas axonopodis): 1.96 µg/mL (≈ 5.37 µM); EC50 [24]: 3.83 µg/mL (≈ 10.5 µM)

Question: For Cn1c2ccccc2c2cc(/C=C/C(=O)c3ccc([N+](=O)[O-])cc3)ccc21, which “inhibition zone (IZ)” value (Escherichia coli [25]) is on record?
Answer: 2.5 mm

Question: And the “inhibition zone (IZ)” value (Proteus vulgaris)?
Answer: 4 mm

Question: And the “inhibition zone (IZ)” value (Staphylococcus aureus [26])?
Answer: 4.5 mm

Question: What about the “inhibition zone (IZ)” value (Candida albicans [27]) of the same compound?
Answer: 5 mm

Question: Which MIC (Aspergillus niger) does the source give for CCn1c2ccccc2c2cc(/C=N/NC3=NC(=O)/C(=N\Nc4ccccc4)S3)ccc21 here?
Answer: 0.49 µg/mL

Question: What about the MIC (Geotrichum candidum) of the same compound?
Answer: 0.49 µg/mL

Question: What about the MIC (Staphylococcus aureus [28]) of the same compound?
Answer: 0.49 µg/mL

Question: And the MIC (Bacillus subtilis [29])?
Answer: 0.49 µg/mL

Question: What about the MIC (Escherichia coli [30]) of the same compound?
Answer: 0.49 µg/mL

Question: And the MIC (Klebsiella pneumoniae)?
Answer: 0.49 µg/mL

Question: What about the MIC (Salmonella typhimurium [31]) of the same compound?
Answer: 0.49 µg/mL

Question: Which MIC (Caulobacter vibrioides) does the source give for OCC(CO)(CO)NCC(O)Cn1c2ccc(Cl)cc2c2cc(Cl)ccc21 (configuration not stated) here?
Answer: 15 µM (≈ 6.2 µg/mL)

Question: And the MIC (Staphylococcus aureus [32])?
Answer: 50 µM (≈ 20.7 µg/mL)
